Measured values as given in PMC8080777, “Discovery, optimization, and evaluation of non-bile acid FXR/TGR5 dual agonists” (Scientific Reports, 2021).
Values joined by “and” are separate entries in the source; they are usually repeats but may differ in a detail not shown here. Equal values may be shown once.

Columns and labels:
TGR5 [1] = target: T1, TGR5 (Homo sapiens, UniProt Q8TDU6); assay: TGR5 cAMP assay in CHO cells transfected with TGR5 (cAMP Hunter eXpress, Discover X); format: cell-based
T1 construct: host or cells: CHO cells
T1 sequence (Q8TDU6 1-330): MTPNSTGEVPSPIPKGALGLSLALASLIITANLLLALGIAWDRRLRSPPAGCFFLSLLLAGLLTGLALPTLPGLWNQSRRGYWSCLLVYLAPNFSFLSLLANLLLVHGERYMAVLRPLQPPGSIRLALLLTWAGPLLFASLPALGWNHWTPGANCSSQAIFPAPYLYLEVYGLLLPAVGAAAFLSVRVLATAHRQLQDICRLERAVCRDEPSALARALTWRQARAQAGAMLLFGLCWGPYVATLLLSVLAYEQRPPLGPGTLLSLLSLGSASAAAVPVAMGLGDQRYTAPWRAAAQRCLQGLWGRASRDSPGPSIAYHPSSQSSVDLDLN
Protocol: TGR5 agonist activity was evaluated by transfecting CHO cells with TGR5 using the Discover X expression kit (cAMP Hunter eXpress GPCR Assay, Discover X Fremont, CA). Cells were incubated with test compounds for 0.5 h, and intracellular cAMP levels were measured using the multi-mode microplate reader.
(§1) TGR5 agonist activity was evaluated by transfecting CHO cells with TGR5 using the Discover X expression kit (cAMP Hunter eXpress Assay Kit, Discover X Fremont, CA, USA). Cells were incubated with the test compounds for 0.5 h, and intracellular cAMP levels were measured using Multi-Mode Microplate Reader (FlexStation 3, Molecular Devices Inc., San Jose, CA, USA).
Each compound was tested at concentrations of 10, 1, or 0.1 µM in duplicate (n = 2), with the average value shown.
S4. In vitro, in vivo assay, and selectvity. […]
In vitro TGR5 agonist assay protocol
as §1
Each compound was tested at concentrations of 10, 1, or 0.1 µM in duplicate (n=2), with the […]
parameter logistic equation, Y = min + (max - min)/(1 + 10^(n * (log10(EC50) - log10(conc)))), in […]

FXR [2] = settings: cited from earlier work
TGR5 [3] = target: T1, TGR5; settings: cited from earlier work
FXR [4] = target: T2, FXR (Homo sapiens, UniProt Q96RI1); assay: CHO cell-based FXR luciferase reporter assay (Indigo Biosciences); settings: for FXR Efficacy (%) (0.1 µM) / FXR Efficacy (%) (1 µM): % vs OCA 1 µM as 100%
T2 construct: host or cells: CHO cells
T2 sequence (Q96RI1 1-486): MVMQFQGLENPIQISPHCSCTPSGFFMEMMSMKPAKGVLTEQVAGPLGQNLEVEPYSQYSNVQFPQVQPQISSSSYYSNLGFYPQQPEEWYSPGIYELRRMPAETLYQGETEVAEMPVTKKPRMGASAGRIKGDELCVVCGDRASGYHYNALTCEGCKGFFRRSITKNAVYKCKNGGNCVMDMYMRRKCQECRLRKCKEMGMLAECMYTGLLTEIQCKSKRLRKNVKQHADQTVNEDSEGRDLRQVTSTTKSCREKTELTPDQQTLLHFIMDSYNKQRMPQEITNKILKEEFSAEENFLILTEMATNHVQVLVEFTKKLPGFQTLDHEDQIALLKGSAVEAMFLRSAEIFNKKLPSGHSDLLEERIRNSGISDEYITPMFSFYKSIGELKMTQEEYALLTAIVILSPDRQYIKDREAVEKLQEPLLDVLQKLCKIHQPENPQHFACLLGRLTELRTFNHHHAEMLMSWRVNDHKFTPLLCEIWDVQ
Protocol: To evaluate direct agonist activities against FXR, test compounds were evaluated using a CHO cell-based FXR assay by Indigo Biosciences (State College, PA), in which cells were transfected with an FXR luciferase reporter system.
To directly evaluate the in vitro agonist activity towards FXR, test compounds were evaluated in CHO cells transfected with FXR responsive luciferase reporter (Nuclear Receptor & In Vitro Toxicology Solutions, Indigo Biosciences, State College, PA, USA). […] Each compound was tested in duplicate, and the average value was reported[35],[36].
(§2) The cell recovery medium (CRM, Human Farnesoid X Receptor (NR1H4, FXR reporter assay system, Indigo Biosciences, State College, PA, USA) and compound screening medium (CSM, Human Farnesoid X Receptor (NR1H4, FXR reporter assay system, Indigo Biosciences, State College, PA, USA) were removed from the freezer and thawed in a water bath at 37 °C. Test compounds were dissolved in dimethyl sulfoxide (DMSO, FUJIFILM Wako Pure Chemical Corporation, Osaka city, Osaka, Japan), and the treatment medium was prepared and diluted with CSM to achieve a final concentration of 0.2% total DMSO. The reporter cells were thawed by transferring 3.3 mL CRM at 37 °C into tubes of frozen cells. The tube containing reporter cells was recapped, and it was immediately place in a 37 °C water bath for 5 min. The reporter cells were gently inverted several times, and 100 µL cell suspension was dispensed into each well. One hundred microliters of treatment media was added into wells. Subsequently, the assay plate was kept at 37 °C, and it was incubated with 5% CO2 for 22 h. To prepare luciferase detection reagent (LDR), the detection substrate was gently mixed with detection buffer, media contents were removed from each well, and 100 µL LDR was added to each well of the assay plate. The assay plate was allowed to rest at room temperature for 5 min, and luminescence was quantified using the Multi-Mode Microplate Reader (FlexStation 3, Molecular Devices Inc., San Jose, CA, USA)[36].
S4. In vitro, in vivo assay, and selectvity.
To directly evaluate the in vitro agonist activity towards FXR, test compounds were evaluated in CHO cells transfected with FXR responsive luciferase reporter (Nuclear Receptor & In Vitro Toxicology Solutions, Indigo Biosciences, State College, PA, USA). Cells were incubated with […]
(FlexStation 3, Molecular Devices Inc., San Jose, CA, USA). Efficacies are reported relative to […]
reporter on of 1 µM. Each compound was tested in duplicate, and the average value was […]
as §2, with “sulfoxide (DMSO ,” for “sulfoxide (DMSO,”, “Osaka, Jap an),” for “Osaka, Japan),”, “a 37°C” for “a 37 °C”, “5% CO 2” for “5% CO2”, “using […]” for “using the Multi-Mode Microplate Reader (FlexStation 3, Molecular Devices Inc., San Jose, CA, USA)[36].”

Compound | TGR5 Efficacy (%) (0.1 µM) (TGR5 [1]; 0.1 µM, % vs INT-767 10 µM as 100%) | TGR5 Efficacy (%) (1 µM) (TGR5 [1]; % vs INT-767 10 µM as 100%) | FXR Efficacy (%) (0.1 µM) (FXR [4]) | FXR Efficacy (%) (1 µM) (FXR [4]) | TGR5 Efficacy (%) (10 µM) (TGR5 [1]; % vs INT-767 10 µM as 100%) | TGR5 agonist activity (in words) (TGR5 [1]) | FXR agonist activity (in words) (FXR [4]) | Reported FXR activity (in words) (FXR [2]) | Reported TGR5 activity (in words) (TGR5 [3])
Cc1cc2c(CN(C(=O)c3ccncc3C)c3ccc(F)cc3C)cccc2[nH]1 [Compound 8, reference compound] | 84.7 | 84.7% and 66.1% | – | – | – | – | – | no agonist or antagonist activity against FXR | TGR5 agonist
Cc1cnccc1C(=O)N(CC12CCC(c3ccc4c(c3)OCO4)(CC1)CC2)c1cc(Cl)cc(Cl)c1 [Compound 20n] | – | – | 73.5 | 98.9 | 67.6 | – | – | – | –
Cc1cnccc1C(=O)N(CC12CCC(c3ccc4c(c3)OCCO4)(CC1)CC2)c1cc(Cl)cc(Cl)c1 [Compound 20r] | – | 57.1% | 28.0 | 72.6 | – | most potent TGR5 activity | – | – | –
COc1ncc(C23CCC(CN(C(=O)c4ccncc4C)c4cc(Cl)cc(Cl)c4)(CC2)CC3)cc1C [Compound 20u] | – | 12.1% | 69.2 | 76.2 | – | – | – | – | –

More lines, main results first:

TGR5 Efficacy (%) (0.1 µM) (TGR5 [1]; 0.1 µM, % vs INT-767 10 µM as 100%) | TGR5 Efficacy (%) (1 µM) (TGR5 [1]; % vs INT-767 10 µM as 100%) | FXR Efficacy (%) (0.1 µM) (FXR [4]) | FXR Efficacy (%) (1 µM) (FXR [4]) | TGR5 Efficacy (%) (10 µM) (TGR5 [1]; % vs INT-767 10 µM as 100%) | TGR5 agonist activity (in words) (TGR5 [1]) | FXR agonist activity (in words) (FXR [4]) | Compound | Reported FXR activity (in words) (FXR [2]) | Reported TGR5 activity (in words) (TGR5 [3])
– | 36.0% | 29.4 | 97.6 | 78.9 | – | – | COc1cc(Cl)cc(N(CC23CCC(c4ccc5c(c4)OCO5)(CC2)CC3)C(=O)c2ccncc2C)c1 [Compound 20o] | – | –
– | 18.9% | 56.4 | 95.3 | – | – | high potency against FXR | Cc1cnccc1C(=O)N(CC12CCC(c3ccc(N(C)C)cc3)(CC1)CC2)c1cc(Cl)cc(Cl)c1 [Compound 20s] | – | –
– | 25.0% | 32.8 | 77.3 | – | – | – | COc1cc(Cl)cc(N(CC23CCC(c4ccc(N(C)C)cc4)(CC2)CC3)C(=O)c2ccncc2C)c1 [Compound 20t] | – | –
– | 33.5% | 65.4 | 79.6 | – | – | – | COc1ccc(C23CCC(CN(C(=O)c4ccncc4C)c4cc(Cl)cc(Cl)c4)(CC2)CC3)cc1Cl [Compound 20v] | – | –
